Test results as given in publication PMC3204379 (Journal of molecular biology, 2011).

Target: PtpA (Staphylococcus aureus, UniProt P0C5D2)
Experiment: phosphatase activity
Format: biochemical
Settings: artificial substrate; conditions not given

PtpA, sequence (P0C5D2 whole entry): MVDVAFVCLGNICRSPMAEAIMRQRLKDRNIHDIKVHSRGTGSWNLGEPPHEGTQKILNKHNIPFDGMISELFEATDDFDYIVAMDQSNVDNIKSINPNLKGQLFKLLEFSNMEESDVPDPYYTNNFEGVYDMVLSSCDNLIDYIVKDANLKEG

With O=[N+]([O-])c1ccc(OP(=O)(O)O)cc1 [para-nitrophenol phosphate] the “phosphatase activity (data not shown)” value was “activity of PtpA with the artificial phosphatase substrate para-nitrophenol phosphate”.
